From publication PMC7881127, “Cholesterol as a modulator of cannabinoid receptor CB2 signaling” (Scientific Reports, 2021)

Molecular target: cannabinoid receptor CB2 (Homo sapiens, UniProt P34972)
Experiment: GEF G protein activation assay on purified CB2 reconstituted in liposomes
Format: biochemical
Design: E. coli construct) (cleaved yes); twin-Streptag (N); His10 (C); made in house; host or cells: E. coli BL21 (DE3) and Expi293F GNTI-
Text: To assess the possible role of post-translational modifications of CB2 on its activation by the MRI ligands, the recombinant CB2 receptor was isolated from two different expression cell lines, E. coli BL21 (DE3)[41] and Expi293F GNTI^-[42]. The protein was purified and reconstituted into lipid bilayers containing 1-palmitoyl-2-oleoyl-glycero-3-phosphocholine (POPC) and, 1-palmitoyl-2-oleoyl-sn-glycero-3-phospho-(1′-rac-glycerol) (POPG) at a molar ratio of 3/1, either supplemented or not supplemented with cholesterol, as described in “Methods”[10],[13]. We reported previously that the presence of phospholipids with a negatively charged headgroup stabilizes CB2 protein in lipid bilayers. Therefore, purified CB2 was reconstituted into POPC/POPG (3/1, mol/mol) liposomes containing 0, 20 and 40 mol% cholesterol (reported as total content of lipids) as described in “Methods”. In one case, the protein purified from E. coli cells was reconstituted into lipids extracted from brain tissue (Avanti Polar Lipids). The ratio of protein-to-lipid in the resulting samples was in the range of 1:850 to1:1100 (mol/mol). The levels of protein, and the density of ligand binding sites for receptor preparations reconstituted in liposomes with different content of cholesterol varied only slightly (Supporting Fig. 5a,b).
Figure 7 Activation of G protein on CB2 receptor reconstituted in liposomes. Liposome composition: 75% POPC, 25% POPG and cholesterol content relative to total phospholipids as indicated, or total lipids extracted from bovine brain, as indicated. Proteins were reconstituted at a protein-to-lipid ratio in the range 1:850 to 1:1100 mol/mol. (a–d) CB2 purified from E. coli cells. (e,f) CB2 purified from Expi293F GNTI^- cells. Average values of four independent measurements are plotted (n = 4). Dotted lines represent the rates of activation of G protein in the absence of a ligand.
Reconstitution of the purified CB2 into liposomes was performed as described earlier. Briefly, 200 μg of the purified protein was mixed with 2 mg of lipid mixture (POPC:POPG, 3:1, mol/mol without or with addition or 20 mol% or 40 mol% of cholesterol) solubilized in 1% CHAPS at a concentration of 5 mg lipid/mL, and incubated on ice for 30 min. The detergents were then removed on 4 mL Detergent Removal spin column (Pierce), according to manufacturer’s instructions. The combined filtrate containing proteoliposomes was collected, and aliquots frozen in liquid nitrogen. Frozen liposomes were stored at − 80 °C until further use. Content of protein in proteoliposomes was determined by BioRad DC assay.
The subunits of G protein were expressed and purified as described previously. The nucleotide exchange assay was performed as previously described.

cannabinoid receptor CB2, sequence (P34972 whole entry): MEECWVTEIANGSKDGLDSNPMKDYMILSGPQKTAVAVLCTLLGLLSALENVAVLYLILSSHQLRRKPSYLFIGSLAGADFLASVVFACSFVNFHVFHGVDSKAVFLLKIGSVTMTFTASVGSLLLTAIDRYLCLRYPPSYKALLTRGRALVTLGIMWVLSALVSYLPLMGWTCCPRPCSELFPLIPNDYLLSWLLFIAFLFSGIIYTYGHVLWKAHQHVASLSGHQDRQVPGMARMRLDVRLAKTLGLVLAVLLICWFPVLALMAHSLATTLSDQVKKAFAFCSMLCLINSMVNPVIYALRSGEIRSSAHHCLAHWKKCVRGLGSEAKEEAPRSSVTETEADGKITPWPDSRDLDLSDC

CC(=O)OCCn1c(=NC(=O)C2C(C)(C)C2(C)C)sc2cc(Cl)ccc21 [MRI-2646, 2-(6-Chloro-2-((2,2,3,3-tetramethylcyclopropane-1-carbonyl)imino)benzo[d]thiazol-3(2H)-yl)ethyl acetate]
Pharmacological category in GEF assay (CB2 from E. coli, POPC/POPG liposomes devoid of cholesterol): partial agonist
Pharmacological category in GEF assay (CB2 from E. coli, liposomes with 20% or 40% cholesterol or brain lipid extract): partial inverse agonist
Pharmacological category in GEF assay (CB2 from Expi293F GNTI- (HEK) cells, liposomes with 40% of cholesterol): partial inverse agonist
Pharmacological category in GEF assay (CB2 from Expi293F GNTI- cells, liposomes without cholesterol): partial agonist
